{"source": "paper PMC9774128", "about": "“New Insights into the Mechanism of Antibacterial Action of Synthetic Peptide Mo-CBP3-PepI against Klebsiella pneumoniae” (Antibiotics, 2022)", "test_system": "K. pneumoniae cells", "conditions": "31.25 µg mL^−1, 24 h", "description": "After this, samples were washed twice with 50 mM sodium acetate pH 5.2, with centrifugations at 12,000× g for 15 min at 4 °C. At the end of the washes, the samples were resuspended in 300 µL in the same buffer and frozen for 24 h. Then, the frozen samples were sonicated for 30 min to break the cell wall and membrane, the samples were centrifuged again, and the supernatant was collected.\nAfter that, the Bradford assay was performed to determine the protein concentration in the samples. This step was followed by adding a 10 mM DTT solution under incubation for 1 h at 37 °C to reduce the proteins. Then iodoacetamide was added to a final concentration of 15 mM and incubated for 30 min in a dark room to alkylate the reduced proteins. The proteins reduced and alkylated were digested using trypsin gold (Promega, Madison, WI, USA) to a final concentration of 1:20 (w/w) as described by manufacturers. The trypsin digestion was performed for 16 h at 37 °C. Finally, the samples were dried in a speed vacuum (Eppendorf, Hamburg, Germany) for 3 h and analyzed by ESI-QUAD-TOF mass spectrometer.\nTandem mass spectra were extracted into PKL files for both samples, and the proteins were searched using MASCOT MS/MS ions search from MATRIX SCIENCE (https://www.matrixscience.com/cgi/search_form.pl?FORMVER=2&SEARCH=MIS (accessed on 15 September 2022)) against UP625_E_coli_K12 (AA), UP808_K_pneumoniae and SwissProt databases (the taxonomy was set in bacteria). The terms for the search were: fixed modifications to Carbamidomethyl (C); variable modifications to Oxidation […]; the Peptide tolerance was set to 1.2 DA (with 1% FDR); the MS/MS tolerance was set to 0.6 DA; the peptide charge was set to 2+, 3+, and 4+; and finally, the instrument was set to ESI-QUAD-TOF. The proteins identified in both samples were searched for in UNIPROT and separated into 3 sets (unique from control, unique from the cells treated with Mo-CBP3-PepI, and Mo-CBP3-PepI x control shared proteins).\nThe proteins with a fold-change value ≥ 1.5 (p < 0.05, Tukey’s test) that were up-accumulated (increased the abundance), and proteins with a fold-change value ≤ 0.5 (p < 0.05, Tukey’s test) that were down-accumulated (decreased the abundance) were taken into consideration for comparisons. For each protein, its corresponding FASTA file was downloaded. Then, the blast2go program (https://www.blast2go.com/ (accessed on 30 September 2022)) was used to categorize the proteins detected by Gene Ontology (GO) annotation according to Molecular function, […], and subcellular location."}
{"sequence": "CPAIQRCC [Mo-CBP3-PepI]", "values": [{"measurement": "Fold Change Mo-CBP3-PepI vs. DMSO: Methylenetetrahydrofolate--tRNA-(uracil-5-)-methyltransferase TrmFO", "setting": "A4WRQ2", "result": 0.948}, {"measurement": "Fold Change Mo-CBP3-PepI vs. DMSO: 50S ribosomal protein L22", "setting": "A5IYY1", "result": 0.187}, {"measurement": "Fold Change Mo-CBP3-PepI vs. DMSO: Phosphoenolpyruvate carboxykinase (ATP)", "setting": "A8AQV7", "result": 0.990}, {"measurement": "Fold Change Mo-CBP3-PepI vs. DMSO: Xylose isomerase", "setting": "B5ZQV6", "result": 1.062}, {"measurement": "Fold Change Mo-CBP3-PepI vs. DMSO: Pantothenate synthetase", "setting": "B8I2Z3", "result": 1.142}, {"measurement": "Fold Change Mo-CBP3-PepI vs. DMSO: Chaperonin GroEL", "setting": "P0A6F5", "result": 1.444}, {"measurement": "Fold Change Mo-CBP3-PepI vs. DMSO: Pantothenate kinase", "setting": "P0A6I3", "result": 0.548}, {"measurement": "Fold Change Mo-CBP3-PepI vs. DMSO: HTH-type transcriptional regulator ArgP", "setting": "P0A8S1", "result": 2.364}, {"measurement": "Fold Change Mo-CBP3-PepI vs. DMSO: 50S ribosomal protein L7/L12", "setting": "P0A466", "result": 1.979}, {"measurement": "Fold Change Mo-CBP3-PepI vs. DMSO: Zinc resistance-associated protein", "setting": "P0AAA9", "result": 1.682}, {"measurement": "Fold Change Mo-CBP3-PepI vs. DMSO: Cysteine synthase A", "setting": "P0ABK5", "result": 0.596}, {"measurement": "Fold Change Mo-CBP3-PepI vs. DMSO: Fimbriae Z protein", "setting": "P0AEL8", "result": 0.690}, {"measurement": "Fold Change Mo-CBP3-PepI vs. DMSO: Ferrichrome outer membrane transporter/phage receptor", "setting": "P06971", "result": 1.063}, {"measurement": "Fold Change Mo-CBP3-PepI vs. DMSO: Iron (3+)-hydroxamate import system permease protein FhuB", "setting": "P06972", "result": 0.948}, {"measurement": "Fold Change Mo-CBP3-PepI vs. DMSO: 2-succinyl-5-enolpyruvyl-6-hydroxy-3-cyclohexene-1-carboxylate synthase", "setting": "P17109", "result": 3.486}, {"measurement": "Fold Change Mo-CBP3-PepI vs. DMSO: Sensor protein PhoQ", "setting": "P23837", "result": 0.823}, {"measurement": "Fold Change Mo-CBP3-PepI vs. DMSO: Lipopolysaccharide core biosynthesis protein RfaZ", "setting": "P27241", "result": 2.038}, {"measurement": "Fold Change Mo-CBP3-PepI vs. DMSO: Inner membrane protein YhjD", "setting": "P37642", "result": 0.362}, {"measurement": "Fold Change Mo-CBP3-PepI vs. DMSO: Gamma-glutamylputrescine oxidoreductase", "setting": "P37906", "result": 0.985}, {"measurement": "Fold Change Mo-CBP3-PepI vs. DMSO: Endonuclease 8", "setting": "P50465", "result": 0.287}, {"measurement": "Fold Change Mo-CBP3-PepI vs. DMSO: Sensor histidine kinase GlrK", "setting": "P52101", "result": 0.752}, {"measurement": "Fold Change Mo-CBP3-PepI vs. DMSO: 2.3-bisphosphoglycerate-dependent phosphoglycerate mutase", "setting": "P62707", "result": 0.519}, {"measurement": "Fold Change Mo-CBP3-PepI vs. DMSO: Low affinity potassium transport system protein kup", "setting": "P63183", "result": 1.704}, {"measurement": "Fold Change Mo-CBP3-PepI vs. DMSO: Peptide methionine sulfoxide reductase MsrB", "setting": "P75129", "result": 14.104}, {"measurement": "Fold Change Mo-CBP3-PepI vs. DMSO: Probable cytosol aminopeptidase", "setting": "P75206", "result": 2.097}, {"measurement": "Fold Change Mo-CBP3-PepI vs. DMSO: tRNA uridine 5-carboxymethylaminomethyl modification enzyme MnmG", "setting": "P75221", "result": 0.487}, {"measurement": "Fold Change Mo-CBP3-PepI vs. DMSO: Phosphate acyltransferase", "setting": "P75232", "result": 3.096}, {"measurement": "Fold Change Mo-CBP3-PepI vs. DMSO: Putative ABC transporter ATP-binding protein MPN_334", "setting": "P75444", "result": 1.336}, {"measurement": "Fold Change Mo-CBP3-PepI vs. DMSO: Putative acetyltransferase MPN_114", "setting": "P75448", "result": 1.703}, {"measurement": "Fold Change Mo-CBP3-PepI vs. DMSO: Cytadherence high molecular weight protein 2", "setting": "P75471", "result": 1.682}, {"measurement": "Fold Change Mo-CBP3-PepI vs. DMSO: Oligopeptide transport ATP-binding protein OppD", "setting": "P75552", "result": 0.948}, {"measurement": "Fold Change Mo-CBP3-PepI vs. DMSO: Phenylacetate-coenzyme A ligase", "setting": "P76085", "result": 1.666}, {"measurement": "Fold Change Mo-CBP3-PepI vs. DMSO: Sensor histidine kinase HprS", "setting": "P76339", "result": 0.213}, {"measurement": "Fold Change Mo-CBP3-PepI vs. DMSO: UDP-glucose 6-dehydrogenase", "setting": "P76373", "result": 0.902}, {"measurement": "Fold Change Mo-CBP3-PepI vs. DMSO: Cation efflux system protein CusC", "setting": "P77211", "result": 0.920}, {"measurement": "Fold Change Mo-CBP3-PepI vs. DMSO: Glycerate 3-kinase", "setting": "P77364", "result": 0.745}, {"measurement": "Fold Change Mo-CBP3-PepI vs. DMSO: Glutathione S-transferase YfcF", "setting": "P77544", "result": 0.273}, {"measurement": "Fold Change Mo-CBP3-PepI vs. DMSO: HTH-type transcriptional regulator SutR", "setting": "P77626", "result": 2.566}, {"measurement": "Fold Change Mo-CBP3-PepI vs. DMSO: Lon protease", "setting": "P78025", "result": 0.342}, {"measurement": "Fold Change Mo-CBP3-PepI vs. DMSO: Pyruvate kinase", "setting": "P78031", "result": 3.139}, {"measurement": "Fold Change Mo-CBP3-PepI vs. DMSO: Undecaprenyl-diphosphatase", "setting": "Q2KX31", "result": 1.340}, {"measurement": "Fold Change Mo-CBP3-PepI vs. DMSO: Periplasmic trehalase", "setting": "Q4UZ12", "result": 0.937}, {"measurement": "Fold Change Mo-CBP3-PepI vs. DMSO: GMP synthase (glutamine-hydrolyzing)", "setting": "Q6APU2", "result": 4.596}, {"measurement": "Fold Change Mo-CBP3-PepI vs. DMSO: Elongation factor G", "setting": "Q7NAV3", "result": 0.234}, {"measurement": "Fold Change Mo-CBP3-PepI vs. DMSO: Diaminopimelate decarboxylase", "setting": "Q8K9C4", "result": 3.546}, {"measurement": "Fold Change Mo-CBP3-PepI vs. DMSO: Bifunctional protein FolD", "setting": "Q88WM8", "result": 0.726}, {"measurement": "Fold Change Mo-CBP3-PepI vs. DMSO: Mgp-operon protein 3", "setting": "Q50341", "result": 0.654}]}
